The text below walks through data of patent US11793824B2, “Administration of nicotinamide mononucleotide in the treatment of disease” (Washington University, priority 2013, dated 2023).

For one data set, the target named is T1, Nampt (Mus musculus, UniProt Q99KQ4).
T1 construct: endogenous in cells; host or cells: primary neurospheres (NSPCs) from hippocampi of postnatal mice
Description: NAD+ levels in neurospheres treated with FK866 with or without NMN. In kind it is cell-based.

For another data set, the system named is 661W cone cells. Briefly: 661W cone cells: oxygen consumption rate measurement assay. In kind it is cell-based, mouse. How it is done: There was an abundance of degenerative vacuoles with ingested organelles including mitochondria in rod-CKO mice with no such structures identified in littermate wild type controls. At 3 weeks of age, subtle changes in inner segments could be identified in rod-CKO mice although they were not as dramatic as those seen by 4 weeks (FIG. 35). […] The inventors treated 661W cone cells with NAMPT inhibitor FK866 (200 nM). In the oxygen consumption rate measurement assay, multiple aspects of mitochondrial function were analyzed.

In the next data set the test system is 661W cone PR cell line. Description: 661W cone PR cell line: cell death and intracellular NAD under FK866 with or without NMN. In kind it is cell-based, mouse. The source says: The present inventors assessed the physiological importance of NAMPT-mediated NAD biosynthesis in the retina by generating rod cell- and cone cell-specific NAMPT knockout mice. […] Both a and b wave ERG responses were completely depressed as characterized by a total lack of response to all stimuli. […] NMN administration is an effective intervention to treat/prevent retinal degeneration.
The inventors used a 661W cone PR cell line and treated the cells with the specific pharmacological NAMPT inhibitor FK866 (200 nM). […] Cell death progresses dramatically over the next 20 hours.

Data set [1] is described as follows: 12 month-long NMN administration study: adverse effects and toxicity. In kind it is in vivo. How it is done: (§1) A 12 month-long NMN administration study using wild-type mice under a regular chow-fed condition was conducted. NMN was administered through drinking water, and two doses of NMN, 100 and 300 mg/kg body weight/day, were tested. […] To assess beneficial and possible adverse effects of NMN, a variety of physiological parameters were periodically monitored, including body weight, body temperature, food and water intake, fed and fasted blood glucose levels, fed and fasted plasma lipid panels, and glucose and insulin tolerance, in NMN-administered and control mice. Blood chemistry, blood cell counts, urine strip test, and other physiological tests including physical activity test were also checked.

The nature of data set [2]: Age-associated body weight increase, 12 month-long NMN administration. In kind it is in vivo, mouse. The conditions noted are these: 12 months. How it is done:
as §1
In these experiments, NMN was administered to mice at a dosage rate of 100 mg/kg per day or 300 mg/kg per day. […] The results were analyzed with two-way RANOVA and one-way RANOVA with the unweighted linear term. All values are presented as mean±SEM (n=15, 14, and 14 for control, 100, and 300 mg/kg NMN-administered groups).

The nature of data set [3]: Insulin tolerance test in old mice. In kind it is in vivo, mouse. The conditions noted are these: 100 and 300 mg/kg groups, body weight-matched, 12-month time point, 17 month-old mice. As for the experimental part: as §1
(See Methods; Administration of NMN through Drinking Water and Determination of NMN Stability and Toxicity). As illustrated in FIG. 9A-B, insulin tolerance results from body weight-matched mice in the control and the 100 and 300 mg/kg NMN-administered groups at the 12-month time point are presented. Blood glucose levels (FIG. 9A) and percent glucose changes (FIG. 9B) after insulin injection are shown. The results were analyzed with two-way RANOVA and one-way ANOVA. All values are presented as mean±SEM (n=10-15 for each group).

Data set [4] in a line: Age-associated increases in blood lipid levels. In kind it is in vivo, mouse. How it is done: as §1
Blood levels of cholesterol, triglycerides, and free fatty acids are shown over 12 months in the control and the 100 and 300 mg/kg NMN-administered cohorts in FIG. 7. The results were analyzed with two-way RANOVA and one-way RANOVA. All values are presented as mean±SEM (n=25 for each group).
Without being limited by theory, since NMN has an effect of suppressing age-associated body weight increase, it was hypothesized that NMN's effect on blood lipid levels could be due to the reduction in body weight. To address this possibility, lipid levels were compared among individual mice whose average body weights were matched through control and experimental cohorts. Body weight-matched blood levels of cholesterol, triglycerides, and free fatty acids are shown over 12 months in the control and the 100 and 300 mg/kg NMN-administered cohorts in FIG. 8. The results were analyzed with two-way RANOVA and one-way RANOVA. All values are presented as mean±SEM (n=10-15 for each group). […] All values are presented as mean±SEM (n=10-15 for each group). These findings indicate that NMN has the effect of suppressing the age-associated increase in blood FFA levels, independent of the reduction in body weight. Without being limited by theory, the effect of NMN on blood cholesterol levels may be secondary to the effect of suppressing age-associated body weight increase.

Data set [5] can be described thus: Tear production, modified Schirmer's test. In kind it is in vivo, mouse. How it is done: as §1
In this long-term NMN administration study (See Methods; Administration of NMN through Drinking Water and Determination of NMN Stability and Toxicity), tear production was assessed in control and NMN-administered mice with modified Schirmer's test. All values are presented as mean±SEM. **p<0.01.

Another data set deals with NAMPT rod-CKO mice. Description: ERG rescue in NAMPT rod-CKO mice. In kind it is in vivo, mouse. The source says: The inventors examined the effect of selectively disrupting NAD biosynthesis within PR. The inventors utilized the cre-lox strategy to generate mice that had NAMPT conditionally deleted from either rods (NAMPT rod-CKO) or cones (NAMPT cone-CKO). The NAMPT fl/fl mice as well as the rhodopsin-cre and cone opsin-cre mice have been previously characterized. Both rod and cone cko mice are generated with normal Mendelian frequencies and are born normal with no observable systemic abnormalities (data not shown). All structural and functional analyses performed in CKO mice are analyzed in comparison to littermate controls. Rods constitute a majority of the PR neurons (97% of all photoreceptors). […] Neurosensory retinal degeneration was associated with secondary atrophy and pallor of the optic nerve (FIG. 29C).
The present inventors determined that exogenous supplementation with NMN is able to rescue PR neurons from cell death in CKO mice. Intraperitoneal (i.p.) delivery was chosen to obtain early and sustained levels of NMN. In these experiments, NAMPT rod-CKO mice were given NMN (150 mg/kg) or PBS i.p. daily starting at day P5. […] There was no effect of NMN on littermate control animals.

The mark [6] stands for this setting: 100 and 300 mg/kg groups vs control.

“Also recorded” adds a separate entry of the source.

T1 sequence (Q99KQ4 whole entry): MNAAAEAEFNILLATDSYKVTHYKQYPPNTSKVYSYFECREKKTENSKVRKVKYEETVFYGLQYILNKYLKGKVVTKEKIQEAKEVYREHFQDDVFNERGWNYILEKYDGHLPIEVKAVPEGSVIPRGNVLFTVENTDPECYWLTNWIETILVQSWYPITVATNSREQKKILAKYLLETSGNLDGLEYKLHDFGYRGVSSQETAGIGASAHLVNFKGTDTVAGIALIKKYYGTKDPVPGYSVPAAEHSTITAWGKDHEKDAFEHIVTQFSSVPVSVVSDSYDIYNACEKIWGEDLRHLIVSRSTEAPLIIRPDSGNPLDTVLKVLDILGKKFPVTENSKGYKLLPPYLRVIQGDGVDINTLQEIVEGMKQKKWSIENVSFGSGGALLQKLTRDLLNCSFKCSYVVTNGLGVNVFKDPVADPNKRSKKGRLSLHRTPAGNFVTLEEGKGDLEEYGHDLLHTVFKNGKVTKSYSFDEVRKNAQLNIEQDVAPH

Take `O=C(/C=C/c1cccnc1)NCCCCC1CCN(C(=O)c2ccccc2)CC1` [FK866]: at Nampt (FK866 10 nM, 48 hours), the “NAD+ levels in neurospheres” value is 4 % of controls. In the data set on 661W cone cells (FK866 200 nM), the maximal respiration entry is “significantly reduced”. Besides, in the data set on 661W cone PR cell line (FK866 200 nM), the “intracellular NAD levels” value is “decrease in intracellular NAD levels”. Also, in the data set with 661W cone PR cell line (FK866 200 nM, after 4 hours of treatment), the “cell death of 661W cells” value was “significant cell death; also recorded: apoptotic cell death”.

On to `NC(=O)c1ccc[n+]([C@@H]2O[C@H](COP(=O)([O-])O)[C@@H](O)[C@H]2O)c1` [NMN, nicotinamide mononucleotide], for which, on Nampt (concurrent NMN 100 μM with FK866 10 nM), the “rescue of FK866-induced decrease of NAD+ levels” value is reported as “completely rescued”. In the data set on 661W cone cells (NMN treatment with FK866), the “effects of FK866 on mitochondrial function” value is “completely reverse”. The “adverse effects or signs of toxicity” value in [1] (100 mg/kg or 300 mg/kg body weight/day in drinking water, 12 months) is listed as “no adverse effects, such as malnutrition, or signs of toxicity were observed; also recorded: without showing any serious side effects”. Also, the water intake entry in data set [1] (NMN in drinking water, through the experimental period) is “did not change significantly”. Also, the “adverse effect on glucose metabolism” value in [1] (long-term NMN administration) is “does not show any adverse effect on glucose metabolism”. For the same compound, in data set [2] (100 mg/kg group), the “average percent body weight gain suppression normalized to control mice” value came out at 12% and the “average percent body weight reduction normalized to control mice” value was 4%. For the same compound, in [2] (300 mg/kg group), the “average percent body weight gain suppression normalized to control mice” value is 30% and the “average percent body weight reduction normalized to control mice” value came to 9%. In addition, in the data set on 661W cone PR cell line (NMN 100 μM with FK866), the “NAD levels under FK866” value was “restore NAD to normal levels” and the “rescue from FK866-mediated cell death” value is “completely rescue; also recorded: successfully rescued”. For the same compound, the “insulin sensitivity (insulin tolerance test)” value in data set [3] is on record as “significantly enhanced insulin sensitivity”. In addition, the “increase of FFAs over time after body weight match” value in data set [4] (100 mg/kg group) is listed as “showed significant increases over time”. In addition, in data set [4] (100 mg/kg group, first 6 months), the “increase of blood FFAs over time” value was “statistically significant increases”. Besides, in data set [4] (300 mg/kg group), the “increase of FFAs over time after body weight match” value is “did not show any statistically significant increases over time” and the “increase of blood FFAs over time” value was “did not show any statistically significant increase over time”. Further, the “age-associated increases in blood levels of FFAs” value in data set [4] (300 mg/kg, particularly at the 6-month time point) is given as “suppressed age-associated increases in blood levels of FFAs”. In data set [4] (setting [6]), the “FFA levels after matching body weight” value is “still lower”; the “blood cholesterol levels after matching body weight” value was “very similar through control and experimental groups”. For the same compound, the “age-associated increases in blood cholesterol and free fatty acids” value in [4] (100 and 300 mg/kg groups, 12 months) was “tended to be suppressed”. Further, in [5] (300 mg/kg group), the tear production entry is “comparable to the maximal tear production through the mouse lifespan”. Further, the tear production entry in data set [5] (18 month-old mice, 100 and 300 mg/kg) is given as “increased tear production in a dose-dependent manner”. Besides, in the data set on NAMPT rod-CKO mice (NMN 150 mg/kg i.p. daily), the “effect on littermate control animals” value is given as “no effect”. In the data set with NAMPT rod-CKO mice (NMN 150 mg/kg i.p. daily from P5, ERG at 4 weeks, vs PBS), the “photopic and scotopic function (ERG)” value was “significant rescue”.
